Assay results as given in patent US20260055111A1, “CRYSTALLINE FORM OF PYRAZOLOPYRIMIDINE ESTER COMPOUND AND METHODS OF PREPARING THE SAME” (Shanghai Maius Pharmaceutical Co. Ltd., priority 2022, published 2026).
“Also recorded” adds a separate entry of the source.

Experiments:
[1] = Stability study: change in purity of solid forms after storage under different conditions; type: physicochemical; details: for Purity, Initial (Day 0): before storage; for Overall stability / degree of degradation compared with other forms: forced degradation conditions of the stability study; for Purity, Room Temperature (Day 10): stored at room temperature for 10 days; for Purity, In Light (Day 10): stored in light for 10 days
Description: Samples of the amorphous and crystalline (Forms I and II) compound of formula (I) were stored under different conditions.
Storage conditions for the crystalline form Form II: at 60° C. for 10 days; at 60° C. and 75% RH (relative humidity) for 10 days; in light for 10 days; and at room temperature for 10 days.
Storage conditions for the amorphous and crystalline (Form I) forms: at 40° C. for 10 days; at 60° C. and 75% RH for 10 days; in light for 10 days; and at room temperature for 10 days.

[2] = Hygroscopicity by dynamic vapor sorption (DVS), with XRPD before and after; type: physicochemical
[3] = cited from earlier work
[4] = stored at 60° C. and 75% RH for 10 days
[5] = stored at room temperature and in light for 10 days

## C=CC(=O)N1CCC[C@@H](n2nc(-c3ccc(Oc4ccccc4)cc3)c3c(NC(=O)OCCCC)ncnc32)C1 [Amorphous, 1-[(3R)-3-[4-(butoxycarbonyl)-amino-3-(4-phenoxyphenyl)-1H-pyrazolo[3,4-d]pyrimidin-1-yl]-1-piperidinyl]-2-propen-1-one]
[1]
  Purity, Initial (Day 0): 99.07%
  Overall stability / degree of degradation compared with other forms: poor stability
  Purity, Room Temperature (Day 10): 98.01%
  Purity, In Light (Day 10): 98.63%
[1]; stored at 40° C. for 10 days
  Purity, 40° C. (Day 10): 96.10%
[1]; stored at 40° C. for 10 days, listed as amorphous
  Degradation in words: Noticeable degradation
[1]; stored at 40° C. for 10 days, listed as amorphous compound
  Degradation in words: Significant degradation
[1]; [4]
  Degradation in words: almost complete degradation
  Purity, 60° C. + 75% RH (Day 10): 0.27%

## C=CC(=O)N1CCC[C@@H](n2nc(-c3ccc(Oc4ccccc4)cc3)c3c(NC(=O)OCCCC)ncnc32)C1 [Form I, 1-[(3R)-3-[4-(butoxycarbonyl)-amino-3-(4-phenoxyphenyl)-1H-pyrazolo[3,4-d]pyrimidin-1-yl]-1-piperidinyl]-2-propen-1-one]
[1]
  Purity, Initial (Day 0): 98.68%
  Overall stability / degree of degradation compared with other forms: lower degrees of degradation than the amorphous form
  Purity, Room Temperature (Day 10): 98.64%
  Purity, In Light (Day 10): 98.62%
[1]; stored at 40° C. for 10 days
  Purity, 40° C. (Day 10): 98.60%
[1]; [4]
  Purity, 60° C. + 75% RH (Day 10): 90.62%
[1]; [5]
  Stability in words: very stable; also recorded: remaining stable
[2]
  Hygroscopicity: almost non-hygroscopic

## C=CC(=O)N1CCC[C@@H](n2nc(-c3ccc(Oc4ccccc4)cc3)c3c(NC(=O)OCCCC)ncnc32)C1 [Form II, 1-[(3R)-3-[4-(butoxycarbonyl)-amino-3-(4-phenoxyphenyl)-1H-pyrazolo[3,4-d]pyrimidin-1-yl]-1-piperidinyl]-2-propen-1-one]
[1]
  Purity, Initial (Day 0): 99.13%
  Overall stability / degree of degradation compared with other forms: lower degree of degradation than the amorphous form; also recorded: obviously better than the amorphous form and even better than Form I
  Purity, Room Temperature (Day 10): 99.13%
  Purity, In Light (Day 10): 99.17%
[1]; degradation conditions such as high-temperature and high-humidity
  Stability in words: stable
[1]; [4]
  Purity, 60° C. + 75% RH (Day 10): 97.80%
[1]; stored at 60° C. for 10 days
  Purity, 60° C. (Day 10): 98.90%
[1]; [5]
  Stability in words: more stable
[2]
  XRPD pattern before and after the DVS determination: remained the same

## C=CC(=O)N1CCC[C@@H](n2nc(-c3ccc(Oc4ccccc4)cc3)c3c(NC(=O)OCCCC)ncnc32)C1 [formula (I), 1-[(3R)-3-[4-(butoxycarbonyl)-amino-3-(4-phenoxyphenyl)-1H-pyrazolo[3,4-d]pyrimidin-1-yl]-1-piperidinyl]-2-propen-1-one]
[3]; AUC of the active metabolite 4-AAM, among the prodrugs of CN 202111131059.0
  4-AAM AUC: highest
[3]; among the prodrugs of CN 202111131059.0
  AUC of the prodrug itself: lowest
[3]; among the pyrazolopyrimidine ester prodrugs of CN 202111131059.0
  Rate of hydrolysis in blood: most rapidly
